Reference: the NIST ThermoML archive (doi:10.1021/je700406p)
Numbers after ± are expanded uncertainties.

Test: wn = mass fraction of the nth substance listed
Details: Liquid, Vibrating tube method

CC(C)(N)CO [2-amino-2-methylpropan-1-ol] + O
mass density (352.85 K, 12992 kPa, w1 = 0.2821): 967.1 ± 0.6 kg/m3
mass density (352.85 K, 13990 kPa, w1 = 0.2821): 967.5 ± 0.6 kg/m3
mass density (352.85 K, 14990 kPa, w1 = 0.2821): 968 ± 0.6 kg/m3
mass density (352.85 K, 15988 kPa, w1 = 0.2821): 968.4 ± 0.6 kg/m3
mass density (352.85 K, 16991 kPa, w1 = 0.2821): 968.8 ± 0.6 kg/m3
mass density (352.85 K, 17991 kPa, w1 = 0.2821): 969.2 ± 0.6 kg/m3
mass density (352.85 K, 18988 kPa, w1 = 0.2821): 969.6 ± 0.6 kg/m3
mass density (352.85 K, 19987 kPa, w1 = 0.2821): 970.1 ± 0.6 kg/m3
mass density (352.85 K, 20985 kPa, w1 = 0.2821): 970.5 ± 0.6 kg/m3
mass density (352.86 K, 500 kPa, w1 = 0.1997): 965 ± 0.5 kg/m3
mass density (352.86 K, 1000 kPa, w1 = 0.1997): 965.2 ± 0.5 kg/m3
mass density (352.86 K, 2000 kPa, w1 = 0.1997): 965.7 ± 0.5 kg/m3
mass density (352.86 K, 3000 kPa, w1 = 0.1997): 966.2 ± 0.5 kg/m3
mass density (352.86 K, 4000 kPa, w1 = 0.1997): 966.5 ± 0.5 kg/m3
mass density (352.86 K, 5000 kPa, w1 = 0.1997): 966.9 ± 0.5 kg/m3
mass density (352.86 K, 6000 kPa, w1 = 0.1997): 967.3 ± 0.5 kg/m3
mass density (352.86 K, 7000 kPa, w1 = 0.1997): 967.8 ± 0.5 kg/m3
mass density (352.86 K, 8000 kPa, w1 = 0.1997): 968.2 ± 0.5 kg/m3
mass density (352.86 K, 9009 kPa, w1 = 0.1997): 968.6 ± 0.5 kg/m3
mass density (352.86 K, 10002 kPa, w1 = 0.1997): 969.1 ± 0.5 kg/m3
mass density (352.86 K, 11001 kPa, w1 = 0.1997): 969.5 ± 0.5 kg/m3
mass density (352.86 K, 12000 kPa, w1 = 0.1997): 970 ± 0.5 kg/m3
mass density (352.86 K, 13000 kPa, w1 = 0.1997): 970.4 ± 0.5 kg/m3
mass density (352.86 K, 14000 kPa, w1 = 0.1997): 970.8 ± 0.5 kg/m3
mass density (352.86 K, 15003 kPa, w1 = 0.1997): 971.2 ± 0.5 kg/m3
mass density (352.86 K, 16001 kPa, w1 = 0.1997): 971.6 ± 0.5 kg/m3
mass density (352.86 K, 17001 kPa, w1 = 0.1997): 972.1 ± 0.5 kg/m3
mass density (352.86 K, 18002 kPa, w1 = 0.1997): 972.5 ± 0.5 kg/m3
mass density (352.86 K, 19001 kPa, w1 = 0.1997): 972.9 ± 0.5 kg/m3
mass density (352.86 K, 20029 kPa, w1 = 0.1997): 973.3 ± 0.5 kg/m3
mass density (352.86 K, 21004 kPa, w1 = 0.1997): 973.8 ± 0.5 kg/m3
mass density (352.86 K, 22004 kPa, w1 = 0.1997): 974.1 ± 0.5 kg/m3
mass density (352.86 K, 23000 kPa, w1 = 0.1997): 974.5 ± 0.5 kg/m3
mass density (352.86 K, 24004 kPa, w1 = 0.1997): 975 ± 0.5 kg/m3
mass density (352.87 K, 1039 kPa, w1 = 0.4976): 945 ± 1.2 kg/m3
mass density (352.87 K, 2018 kPa, w1 = 0.4976): 945.5 ± 1.2 kg/m3
mass density (352.87 K, 3005 kPa, w1 = 0.4976): 946 ± 1.2 kg/m3
mass density (352.87 K, 4018 kPa, w1 = 0.4976): 946.5 ± 1.2 kg/m3
mass density (352.87 K, 5000 kPa, w1 = 0.4976): 946.9 ± 1.2 kg/m3
mass density (352.87 K, 5997 kPa, w1 = 0.4976): 947.4 ± 1.2 kg/m3
mass density (352.87 K, 7007 kPa, w1 = 0.4976): 947.9 ± 1.2 kg/m3
mass density (352.87 K, 7999 kPa, w1 = 0.4976): 948.4 ± 1.2 kg/m3
mass density (352.87 K, 8994 kPa, w1 = 0.4976): 948.9 ± 1.2 kg/m3
mass density (352.87 K, 9996 kPa, w1 = 0.4976): 949.4 ± 1.2 kg/m3
mass density (352.87 K, 10996 kPa, w1 = 0.4976): 949.8 ± 1.2 kg/m3
mass density (352.87 K, 12002 kPa, w1 = 0.4976): 950.3 ± 1.2 kg/m3
mass density (352.87 K, 13000 kPa, w1 = 0.4976): 950.8 ± 1.2 kg/m3
mass density (352.87 K, 13993 kPa, w1 = 0.4976): 951.2 ± 1.2 kg/m3
mass density (352.87 K, 15004 kPa, w1 = 0.4976): 951.7 ± 1.2 kg/m3
mass density (352.87 K, 16002 kPa, w1 = 0.4976): 952.2 ± 1.2 kg/m3
mass density (352.87 K, 16989 kPa, w1 = 0.4976): 952.6 ± 1.3 kg/m3
mass density (352.87 K, 18011 kPa, w1 = 0.4976): 953.1 ± 1.3 kg/m3
mass density (352.87 K, 18989 kPa, w1 = 0.4976): 953.5 ± 1.3 kg/m3
mass density (352.87 K, 20010 kPa, w1 = 0.4976): 954 ± 1.3 kg/m3
mass density (352.87 K, 20989 kPa, w1 = 0.4976): 954.4 ± 1.3 kg/m3
mass density (362.73 K, 999 kPa, w1 = 0.2821): 954.1 ± 0.6 kg/m3
mass density (362.73 K, 1015 kPa, w1 = 0.4976): 936.3 ± 1.2 kg/m3
mass density (362.73 K, 1999 kPa, w1 = 0.2821): 954.5 ± 0.6 kg/m3
mass density (362.73 K, 2010 kPa, w1 = 0.4976): 936.7 ± 1.2 kg/m3
mass density (362.73 K, 2998 kPa, w1 = 0.2821): 955.1 ± 0.6 kg/m3
mass density (362.73 K, 3022 kPa, w1 = 0.4976): 937.3 ± 1.2 kg/m3
mass density (362.73 K, 3996 kPa, w1 = 0.2821): 955.4 ± 0.6 kg/m3
mass density (362.73 K, 3997 kPa, w1 = 0.4976): 937.8 ± 1.2 kg/m3
mass density (362.73 K, 4996 kPa, w1 = 0.2821): 955.9 ± 0.6 kg/m3
mass density (362.73 K, 5010 kPa, w1 = 0.4976): 938.3 ± 1.2 kg/m3
mass density (362.73 K, 5993 kPa, w1 = 0.2821): 956.3 ± 0.6 kg/m3
mass density (362.73 K, 6002 kPa, w1 = 0.4976): 938.8 ± 1.2 kg/m3
mass density (362.73 K, 6993 kPa, w1 = 0.2821): 956.8 ± 0.6 kg/m3
mass density (362.73 K, 6999 kPa, w1 = 0.4976): 939.3 ± 1.2 kg/m3
mass density (362.73 K, 7992 kPa, w1 = 0.4976): 939.8 ± 1.2 kg/m3
mass density (362.73 K, 8006 kPa, w1 = 0.2821): 957.3 ± 0.6 kg/m3
mass density (362.73 K, 8992 kPa, w1 = 0.2821): 957.7 ± 0.6 kg/m3
mass density (362.73 K, 8997 kPa, w1 = 0.4976): 940.3 ± 1.2 kg/m3
mass density (362.73 K, 9994 kPa, w1 = 0.2821): 958.1 ± 0.6 kg/m3
mass density (362.73 K, 10028 kPa, w1 = 0.4976): 940.9 ± 1.2 kg/m3
mass density (362.73 K, 10990 kPa, w1 = 0.4976): 941.3 ± 1.2 kg/m3
mass density (362.73 K, 10992 kPa, w1 = 0.2821): 958.6 ± 0.6 kg/m3
mass density (362.73 K, 11992 kPa, w1 = 0.2821): 959.1 ± 0.6 kg/m3
mass density (362.73 K, 11996 kPa, w1 = 0.4976): 941.8 ± 1.2 kg/m3
mass density (362.73 K, 12991 kPa, w1 = 0.2821): 959.5 ± 0.6 kg/m3
mass density (362.73 K, 13002 kPa, w1 = 0.4976): 942.3 ± 1.2 kg/m3
mass density (362.73 K, 13992 kPa, w1 = 0.2821): 959.9 ± 0.6 kg/m3
mass density (362.73 K, 13994 kPa, w1 = 0.4976): 942.8 ± 1.2 kg/m3
mass density (362.73 K, 14986 kPa, w1 = 0.4976): 943.3 ± 1.2 kg/m3
mass density (362.73 K, 14988 kPa, w1 = 0.2821): 960.4 ± 0.6 kg/m3
mass density (362.73 K, 15987 kPa, w1 = 0.2821): 960.8 ± 0.6 kg/m3
mass density (362.73 K, 15995 kPa, w1 = 0.4976): 943.8 ± 1.2 kg/m3
mass density (362.73 K, 16985 kPa, w1 = 0.4976): 944.3 ± 1.2 kg/m3
mass density (362.73 K, 16990 kPa, w1 = 0.2821): 961.3 ± 0.6 kg/m3
mass density (362.73 K, 18007 kPa, w1 = 0.4976): 944.8 ± 1.2 kg/m3
mass density (362.73 K, 18019 kPa, w1 = 0.2821): 961.7 ± 0.6 kg/m3
mass density (362.73 K, 18985 kPa, w1 = 0.2821): 962.1 ± 0.6 kg/m3
mass density (362.73 K, 18989 kPa, w1 = 0.4976): 945.2 ± 1.2 kg/m3
mass density (362.73 K, 19985 kPa, w1 = 0.2821): 962.6 ± 0.6 kg/m3
mass density (362.73 K, 19988 kPa, w1 = 0.4976): 945.7 ± 1.2 kg/m3
mass density (362.73 K, 21004 kPa, w1 = 0.4976): 946.2 ± 1.3 kg/m3
mass density (362.74 K, 532 kPa, w1 = 0.1997): 957.9 ± 0.5 kg/m3
mass density (362.74 K, 1001 kPa, w1 = 0.1997): 958 ± 0.5 kg/m3
mass density (362.74 K, 1014 kPa, w1 = 0.4002): 946.1 ± 0.8 kg/m3
mass density (362.74 K, 1992 kPa, w1 = 0.4002): 946.6 ± 0.8 kg/m3
mass density (362.74 K, 2000 kPa, w1 = 0.1997): 958.5 ± 0.5 kg/m3
mass density (362.74 K, 3000 kPa, w1 = 0.1997): 959 ± 0.5 kg/m3
mass density (362.74 K, 3010 kPa, w1 = 0.4002): 947.1 ± 0.8 kg/m3
mass density (362.74 K, 4000 kPa, w1 = 0.1997): 959.4 ± 0.5 kg/m3
mass density (362.74 K, 4009 kPa, w1 = 0.4002): 947.5 ± 0.8 kg/m3
mass density (362.74 K, 5000 kPa, w1 = 0.1997): 960.1 ± 0.5 kg/m3
mass density (362.74 K, 5001 kPa, w1 = 0.4002): 948 ± 0.8 kg/m3
mass density (362.74 K, 6000 kPa, w1 = 0.1997): 960.4 ± 0.5 kg/m3
mass density (362.74 K, 6003 kPa, w1 = 0.4002): 948.5 ± 0.8 kg/m3
mass density (362.74 K, 6999 kPa, w1 = 0.4002): 949 ± 0.8 kg/m3
mass density (362.74 K, 7000 kPa, w1 = 0.1997): 960.7 ± 0.5 kg/m3
mass density (362.74 K, 7990 kPa, w1 = 0.4002): 949.4 ± 0.9 kg/m3
mass density (362.74 K, 8001 kPa, w1 = 0.1997): 961.2 ± 0.5 kg/m3
mass density (362.74 K, 8995 kPa, w1 = 0.4002): 949.9 ± 0.9 kg/m3
mass density (362.74 K, 9009 kPa, w1 = 0.1997): 961.6 ± 0.5 kg/m3
mass density (362.74 K, 10004 kPa, w1 = 0.1997): 962.1 ± 0.5 kg/m3
mass density (362.74 K, 10039 kPa, w1 = 0.4002): 950.4 ± 0.9 kg/m3
mass density (362.74 K, 10986 kPa, w1 = 0.4002): 950.8 ± 0.9 kg/m3
mass density (362.74 K, 11001 kPa, w1 = 0.1997): 962.4 ± 0.5 kg/m3
mass density (362.74 K, 11991 kPa, w1 = 0.4002): 951.3 ± 0.9 kg/m3
mass density (362.74 K, 12999 kPa, w1 = 0.4002): 951.8 ± 0.9 kg/m3
mass density (362.74 K, 13999 kPa, w1 = 0.4002): 952.2 ± 0.9 kg/m3
mass density (362.74 K, 14990 kPa, w1 = 0.4002): 952.7 ± 0.9 kg/m3
mass density (362.74 K, 15993 kPa, w1 = 0.4002): 953.2 ± 0.9 kg/m3
mass density (362.74 K, 16984 kPa, w1 = 0.4002): 953.6 ± 0.9 kg/m3
mass density (362.74 K, 18005 kPa, w1 = 0.4002): 954.1 ± 0.9 kg/m3
mass density (362.74 K, 18993 kPa, w1 = 0.4002): 954.5 ± 0.9 kg/m3
mass density (362.74 K, 19978 kPa, w1 = 0.4002): 955 ± 0.9 kg/m3
mass density (362.74 K, 21014 kPa, w1 = 0.4002): 955.4 ± 0.9 kg/m3
